Patent US11254671B2, “Chemical compounds” (GLAXOSMITHKLINE INTELLECTUAL PROPERTY DEVELOPMENT LIMITED, priority 2017, dated 2022)

Tested on: type I collagen deposition in primary lung fibroblasts
Assay: Highthroughput type I collagen deposition (scar-in-a-jar) high content screening assay
Assay type: cell-based
Settings: Homo sapiens, Primary lung fibroblast, 72 h, human pulmonary fibroblasts, TGF-β 1 ng/ml, Ficoll crowding, mean of multiple experiments, read-out: mean pIC50, inhibition of type I collagen deposition (converted)
Procedure: Example 53 Highthroughput Type I Collagen Deposition (Scar-in-a-Jar) High Content Screening Assay
Highthroughput, cellular type I collagen deposition was measured by adapting a published method; scar-in-a-jar (Chen et al., 2009) to primary lung fibroblasts derived from human tissue and combining with high content analysis to permit fluorescent quantification of collagen deposited in the extracellular matrix (ECM). The human biological samples were sourced ethically and their research use was in accord with the terms of the informed consents
Test compounds were dissolved in 100% DMSO to give 10 mM (stocks) and further diluted to give half log dilutions to generate an 11 point concentration response curve. 1 ul was transferred to 384-well plates (Greiner Group, Kremsmunster, Austria, Catalogue No Greine 781280r).
Human pulmonary fibroblasts were maintained in DMEM media (Gibco, Catalogue No 21969) supplemented with 4 mM L-glutamine (Gibco Catalogue No 25030-024) and 10% heat inactivated FBS (Gibco, Catalogue No 10099-141) at 37° C. in 10% CO2. Cells were harvested and resuspended at 4×10^6 cells/ml in a T175 cell culture flask (BD Falcom, Catalogue No: 353112) containing 50 mL of culture media. After 4 days 37° C. in 10% CO2, cells were harvested and seeded at 4000 cells per well (50 μL/well) into 384-well plates (BD Falcon, Catalogue No 353962Greiner) in assay media (0.4% heat inactivated FBS, 4 mM L-glutamine). Plates were sealed with breathable seals (Sigma, Catalogue No. BEM-1). Assay plates were incubated for 72 h at 37° C. in 10% CO2.
Assay media was supplemented with 112.5 mg/ml Ficoll 70 (Sigma, Catalogue No F2878), 75 mg/ml Ficoll 400 (Sigma, Catalogue No F4375) and 50 μg/ml ascorbic acid (Sigma, Catalogue No A8960). 30 μL assay media were added to 1 μl compound (37 μM compound concentration in 1% DMSO). Diluted compounds (10 μL) were transferred to plates containing cells and incubated for 3 h at 37° C. in 10% CO2. Transforming growth factor (TGF)-β (R&D systems, Catalogue No 100-B/CF) was reconstituted to give 10 μg/mL (stock) and further diluted in assay media containing Ficoll and ascorbic acid (1 in 3333). TGF-β was added to cell plates (1 ng/ml final) and cells incubated for 72 h at 37° C. in 10% CO2.
Media was aspirated from cells and 30 μL/well 100% ice-cold methanol added and incubated at RT for 5 min to fix cells. Methanol was aspirated and cells washed with PBS (3×). To block and permeabilise, cells were incubated with PBS containing 1% BSA and 0.1% Triton X 100 for 20 min, followed by PBS wash (3×). Cells were incubated with mouse anti human type I collagen monoclonal antibody (Sigma, Catalogue No C2456) diluted 1:1000 in PBS for 24 h at 4° C. Cells were washed with PBS containing 0.1% Tween-20 (3×) and incubated with secondary alexa fluor 488 goat-anti-mouse antibody (Invitrogen, Catalogue No A11001, 1 in 500 in PBS) and Hoechst 33342 (Sigma, Catalogue No H21492), 1 in 1000 in PBS) for 1 h at RT, prior to washing with PBS containing 0.1% Tween (×4).
Type I collagen immunoreactivity was detected using the INCell 2000 Analyzer (GE Healthcare, INcell 2000) set to excitation and emission wavelengths for DAPI and FITC with laser focus and exposure adjusted to appropriate levels. Images were imported and analysed using Columbus software (Perkin Elmer) and computational algorithms to quantify “total collagen area” and “cell count”.
Data analysis was performed by determining % inhibition values for test compounds relative to the minimum (media only) and maximum responses (TGF-βstimulation) with non-linear regression analysis to determine IC50 values for test compounds.

SMILES	IC50 [nM]
CC[C@H]1COCCN1c1cc(C2(S(=O)(=O)C3CC3)CC2)cc(-c2ccc3[nH]c(CNC)cc3n2)n1 [Example 11, (S)-1-(5-(4-(1-(cyclopropylsulfonyl)cyclopropyl)-6-(3-ethylmorpholino)pyridin-2-yl)-1H-pyrrolo[3,2-b]pyridin-2-yl)-N-methylmethanamine]	39.8 to 100
CNCc1cc2nc(-c3cc(C(C)(C)S(C)(=O)=O)cc(N4CC5CCC(C4)O5)n3)ccc2[nH]1 [Example 4, 1-(5-(6-(8-oxa-3-azabicyclo[3.2.1]octan-3-yl)-4-(2-(methylsulfonyl)propan-2-yl)pyridin-2-yl)-1H-pyrrolo[3,2-b]pyridin-2-yl)-N-methylmethanamine]	39.8 to 1000
